Data as given in patent US11744825B2, “Methods of treating hypersensitive cough or itching using ion channel inhibitory compounds” (AFASCI, Inc., priority 2018, dated 2023).
“And” between values parts separate entries of the source, which are not always exact repeats. Identical values can stand only once. “Also recorded” adds a separate entry of the source.

Tests used:
[1] = system: citric acid-induced cough; experiment: Citric acid-induced cough in naive, conscious guinea pigs; assay type: in vivo, guinea pig; details: for reduction of the number of cough events: guinea pig
Method: Guinea pigs (male, 280 g body weight, Hartley Crl:HA, Charles River) were maintained in temperature 21±2° C., humidity 55±10%, 12 hours on-12 hours off light cycle, with food and water ad libitum for at least 1 week before testing. Cough was induced with citric acid aerosol inhalation and cough assessment by human manual score (Gallico, Borghi et al. 1994). Individual animals were placed in a 4 L plexiglas observation chambers continuously filled with 17.5% citric acid aerosol. Animal cough counts were recorded for 5 min. Coughs can be recognized on the basis of sound associated with a rapid inspiration followed by a rapid expiration. Only the animal with cough counts >=10 times/5 min was selected for experiment. The selected animal was then randomized divided into 5 groups, n=8/group. Five days after screening test, the representative AFA-compound, EX-17 at 0, 3, 10 and 30 mg/kg were administered 30 minutes while the benchmark dextromethorphan hydrobromide (60 mg/kg, p.o.) 60 minutes prior to the citric acid inhalation, based on their PK profiles. […] The latency to the first cough has been used as an additional parameter to evaluate antitussive property.
Using the same test protocol, three more representative EX-compounds EX-128, -130 and -132 (each 30 mg/kg, p.o.) or vehicle were tested by orally administering 30 minutes while dextromethorphan hydrobromide (60 mg/kg, p.o.) 60 minutes prior to the citric acid inhalation, based on their PK profiles. […] The latencies to the first cough were increased with three compounds and the benchmark (FIG. 2B).

[2] = system: chloroquine-induced itching; experiment: Chloroquine-induced itching (neck model of itch) in mice; assay type: in vivo, mouse; details: 30 mg/kg i.p., 30 min before pruritogen
Method: (§1) Neck model of itch was employed. Mice (C57BL/6, male, 3-4 months old) were shaved at the nape of the neck 2-3 days before experiments. On the day of behavioral testing mice were individually placed in small plastic chambers (12 cm L×9.5 W×12 H) that inserted into an ordinary homecage at least 30 min for habituation and recorded baseline of behavior using a video camera and a piezoelectric floor sensor operated by a validated homecage behavioral monitory system, SmartCage, which can monitor multiple mouse scratching behaviors simultaneously. Treatment with an individual test article (10 representative AFA-compounds, each at 30 mg/kg) or vehicle (0.5% hydroxyl propyl cellulose aqueous solution containing 2% DMSO) were intraperitoneally (i.p.) injected 30 min prior to itching induction. Mice were given an intradermal injection of 50 μl of a pruritogen, chloroquine or histamine into the nape of the neck. Immediately after the injection, mice were returned to their chambers and were continually recorded by the piezoelectric floor sensor for 30 min. Human manual scoring of itching scratch behavior in real-time and confirmed by video and/or piezoelectric recordings offline. The itch behavior was quantified by counting the number of scratches in a blinded to the treatment manner. A scratch was counted when a mouse lifted its hindpaw to scratch the shaved region and returned the paw to the floor or to the mouth for licking. The piezoelectric signals with a larger and regular waveform distinguished from normal homecage activity were analyzed off-line to objectively quantifying scratch episodes and durations.

[3] = biological target: hCav2.2 (Homo sapiens, UniProt Q00975); experiment: Recombinant hCav2.2 channel expressed in mammalian cells; assay type: cell-based; details: for IC50: recombinant human channel
Excerpt: (§2) A representative panel of AFA/EX compounds was investigated on a variety of recombinant human ion channels expressed in mammalian cells and on native ion channels in dissociated rat dorsal root ganglion (DRG) neurons. […] Thus, this panel of compounds was next investigated on their effects on itching scratching behavior in two well-established itching models in mice.

[4] = biological target: T1, hCav3.2 Channel (Homo sapiens, UniProt O95180); experiment: Recombinant hCav3.2 channel expressed in mammalian cells; assay type: cell-based; design: hCav3.2 Channel % Use Dep. (use dependent inhibition): concentration or dose not given beside the values
T1 construct: expressed in transfected cells
Excerpt: as §2

[5] = biological target: T2, hERG potassium (K+) channels (Homo sapiens, UniProt Q12809); experiment: hERG potassium channel inhibition; assay type: cell-based
T2 construct: expressed in transfected cells
Excerpt: as §2

[6] = system: INa in rat DRG; experiment: Inhibition of INa current in dissociated rat DRG neurons; assay type: cell-based; details: for IC50: rat DRG neurons, read-out: Inhibition of Currents in rat DRG: INa IC50; for Na/T: ratio of INa IC50 to T-type IC50
Excerpt: as §2

[7] = system: histamine-induced itching; experiment: Histamine-induced itching (neck model of itch) in mice; assay type: in vivo, mouse; details: 30 mg/kg i.p., 30 min before pruritogen
Method: as §1

[8] = system: IK in rat DRG; experiment: Inhibition of IK current in dissociated rat DRG neurons; assay type: cell-based; details: for IC50: rat DRG neurons, read-out: Inhibition of Currents in rat DRG: IK IC50; for K/T: ratio of IK IC50 to T-type IC50
Excerpt: as §2

[9] = system: hiPSC INa; experiment: hiPSC INa current; assay type: cell-based, human
[10] = biological target: T3, T current in rat DRG (Rattus norvegicus, UniProt Q9EQ60); experiment: Inhibition of T current in dissociated rat DRG neurons; assay type: cell-based; details: read-out: Inhibition of Currents in rat DRG: T IC50
T3 construct: native ion channels in dissociated rat dorsal root ganglion (DRG) neurons; from tissue; host or cells: dissociated rat dorsal root ganglion neurons
Excerpt: as §2

[11] = biological target: hNav1.5 (Homo sapiens, UniProt Q14524); experiment: Recombinant hNav1.5 channel expressed in mammalian cells; assay type: cell-based
Excerpt: as §2

[12] = biological target: hCav1.2 (Homo sapiens, UniProt Q13936); experiment: Recombinant hCav1.2 channel expressed in mammalian cells; assay type: cell-based
Excerpt: as §2

[13] = system: T-type Ca2+ current; details: Avdonin et al., 2000; cited from earlier work
[14] = 30 mg/kg p.o., 30 min before citric acid
[15] = 30 mg/kg p.o., vs vehicle-treated control

T3 sequence (Q9EQ60 whole entry): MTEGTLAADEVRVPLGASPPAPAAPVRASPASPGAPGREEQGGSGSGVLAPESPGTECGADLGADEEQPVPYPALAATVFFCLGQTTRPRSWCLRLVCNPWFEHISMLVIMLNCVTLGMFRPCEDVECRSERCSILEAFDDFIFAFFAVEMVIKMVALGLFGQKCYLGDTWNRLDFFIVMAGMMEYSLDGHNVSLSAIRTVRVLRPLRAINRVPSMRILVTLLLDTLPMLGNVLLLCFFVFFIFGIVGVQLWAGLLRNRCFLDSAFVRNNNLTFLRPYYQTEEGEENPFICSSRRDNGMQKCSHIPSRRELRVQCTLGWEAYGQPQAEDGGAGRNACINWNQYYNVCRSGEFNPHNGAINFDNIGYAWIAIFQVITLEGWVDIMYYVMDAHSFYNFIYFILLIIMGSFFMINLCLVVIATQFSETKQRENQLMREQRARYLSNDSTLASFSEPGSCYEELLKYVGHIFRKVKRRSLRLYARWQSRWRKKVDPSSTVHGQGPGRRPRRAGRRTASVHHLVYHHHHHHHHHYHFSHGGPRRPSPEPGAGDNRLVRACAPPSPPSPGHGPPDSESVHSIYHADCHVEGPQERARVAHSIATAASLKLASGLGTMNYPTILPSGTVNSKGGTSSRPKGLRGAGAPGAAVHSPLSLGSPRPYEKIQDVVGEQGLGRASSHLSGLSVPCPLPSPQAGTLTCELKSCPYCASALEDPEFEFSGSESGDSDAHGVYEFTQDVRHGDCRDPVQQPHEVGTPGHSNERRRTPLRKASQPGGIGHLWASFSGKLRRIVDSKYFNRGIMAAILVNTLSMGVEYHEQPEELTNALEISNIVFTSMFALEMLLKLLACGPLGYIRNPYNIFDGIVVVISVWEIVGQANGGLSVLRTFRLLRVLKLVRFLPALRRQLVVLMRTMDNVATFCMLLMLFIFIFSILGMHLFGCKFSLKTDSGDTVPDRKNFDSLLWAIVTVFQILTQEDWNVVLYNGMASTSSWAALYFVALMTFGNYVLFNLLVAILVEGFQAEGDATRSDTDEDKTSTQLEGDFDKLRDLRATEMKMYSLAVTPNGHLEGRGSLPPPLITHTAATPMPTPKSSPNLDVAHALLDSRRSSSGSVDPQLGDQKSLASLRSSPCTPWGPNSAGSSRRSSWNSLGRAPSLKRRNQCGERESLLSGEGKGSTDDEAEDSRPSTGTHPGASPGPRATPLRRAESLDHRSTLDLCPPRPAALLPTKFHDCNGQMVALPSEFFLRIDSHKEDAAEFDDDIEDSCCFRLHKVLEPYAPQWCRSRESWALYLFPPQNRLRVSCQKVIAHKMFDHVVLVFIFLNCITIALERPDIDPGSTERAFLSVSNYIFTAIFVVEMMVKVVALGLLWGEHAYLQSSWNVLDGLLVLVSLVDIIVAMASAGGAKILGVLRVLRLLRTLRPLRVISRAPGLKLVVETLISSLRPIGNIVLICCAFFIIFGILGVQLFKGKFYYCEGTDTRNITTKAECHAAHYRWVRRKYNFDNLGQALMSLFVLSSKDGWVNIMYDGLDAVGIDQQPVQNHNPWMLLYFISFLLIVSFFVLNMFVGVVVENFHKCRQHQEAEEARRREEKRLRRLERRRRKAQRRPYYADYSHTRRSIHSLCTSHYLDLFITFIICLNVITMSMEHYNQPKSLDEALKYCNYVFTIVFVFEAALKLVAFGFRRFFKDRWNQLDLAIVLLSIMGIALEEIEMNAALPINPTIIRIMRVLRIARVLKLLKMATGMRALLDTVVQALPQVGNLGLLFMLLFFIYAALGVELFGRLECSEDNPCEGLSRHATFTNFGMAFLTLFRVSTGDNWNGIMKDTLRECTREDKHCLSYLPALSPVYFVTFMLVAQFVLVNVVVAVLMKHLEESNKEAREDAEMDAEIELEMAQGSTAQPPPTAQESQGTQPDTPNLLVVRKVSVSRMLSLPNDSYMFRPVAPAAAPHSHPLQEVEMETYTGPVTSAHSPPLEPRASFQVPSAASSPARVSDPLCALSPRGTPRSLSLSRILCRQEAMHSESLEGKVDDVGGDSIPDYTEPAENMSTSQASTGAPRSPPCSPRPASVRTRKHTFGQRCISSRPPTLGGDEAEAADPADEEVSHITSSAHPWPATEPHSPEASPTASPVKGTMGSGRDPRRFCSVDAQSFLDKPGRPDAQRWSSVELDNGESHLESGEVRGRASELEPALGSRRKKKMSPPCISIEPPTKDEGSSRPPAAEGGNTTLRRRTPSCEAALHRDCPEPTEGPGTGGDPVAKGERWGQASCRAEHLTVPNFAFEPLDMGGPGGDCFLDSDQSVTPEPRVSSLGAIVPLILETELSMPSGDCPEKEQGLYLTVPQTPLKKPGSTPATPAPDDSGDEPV
T1 sequence (O95180 whole entry): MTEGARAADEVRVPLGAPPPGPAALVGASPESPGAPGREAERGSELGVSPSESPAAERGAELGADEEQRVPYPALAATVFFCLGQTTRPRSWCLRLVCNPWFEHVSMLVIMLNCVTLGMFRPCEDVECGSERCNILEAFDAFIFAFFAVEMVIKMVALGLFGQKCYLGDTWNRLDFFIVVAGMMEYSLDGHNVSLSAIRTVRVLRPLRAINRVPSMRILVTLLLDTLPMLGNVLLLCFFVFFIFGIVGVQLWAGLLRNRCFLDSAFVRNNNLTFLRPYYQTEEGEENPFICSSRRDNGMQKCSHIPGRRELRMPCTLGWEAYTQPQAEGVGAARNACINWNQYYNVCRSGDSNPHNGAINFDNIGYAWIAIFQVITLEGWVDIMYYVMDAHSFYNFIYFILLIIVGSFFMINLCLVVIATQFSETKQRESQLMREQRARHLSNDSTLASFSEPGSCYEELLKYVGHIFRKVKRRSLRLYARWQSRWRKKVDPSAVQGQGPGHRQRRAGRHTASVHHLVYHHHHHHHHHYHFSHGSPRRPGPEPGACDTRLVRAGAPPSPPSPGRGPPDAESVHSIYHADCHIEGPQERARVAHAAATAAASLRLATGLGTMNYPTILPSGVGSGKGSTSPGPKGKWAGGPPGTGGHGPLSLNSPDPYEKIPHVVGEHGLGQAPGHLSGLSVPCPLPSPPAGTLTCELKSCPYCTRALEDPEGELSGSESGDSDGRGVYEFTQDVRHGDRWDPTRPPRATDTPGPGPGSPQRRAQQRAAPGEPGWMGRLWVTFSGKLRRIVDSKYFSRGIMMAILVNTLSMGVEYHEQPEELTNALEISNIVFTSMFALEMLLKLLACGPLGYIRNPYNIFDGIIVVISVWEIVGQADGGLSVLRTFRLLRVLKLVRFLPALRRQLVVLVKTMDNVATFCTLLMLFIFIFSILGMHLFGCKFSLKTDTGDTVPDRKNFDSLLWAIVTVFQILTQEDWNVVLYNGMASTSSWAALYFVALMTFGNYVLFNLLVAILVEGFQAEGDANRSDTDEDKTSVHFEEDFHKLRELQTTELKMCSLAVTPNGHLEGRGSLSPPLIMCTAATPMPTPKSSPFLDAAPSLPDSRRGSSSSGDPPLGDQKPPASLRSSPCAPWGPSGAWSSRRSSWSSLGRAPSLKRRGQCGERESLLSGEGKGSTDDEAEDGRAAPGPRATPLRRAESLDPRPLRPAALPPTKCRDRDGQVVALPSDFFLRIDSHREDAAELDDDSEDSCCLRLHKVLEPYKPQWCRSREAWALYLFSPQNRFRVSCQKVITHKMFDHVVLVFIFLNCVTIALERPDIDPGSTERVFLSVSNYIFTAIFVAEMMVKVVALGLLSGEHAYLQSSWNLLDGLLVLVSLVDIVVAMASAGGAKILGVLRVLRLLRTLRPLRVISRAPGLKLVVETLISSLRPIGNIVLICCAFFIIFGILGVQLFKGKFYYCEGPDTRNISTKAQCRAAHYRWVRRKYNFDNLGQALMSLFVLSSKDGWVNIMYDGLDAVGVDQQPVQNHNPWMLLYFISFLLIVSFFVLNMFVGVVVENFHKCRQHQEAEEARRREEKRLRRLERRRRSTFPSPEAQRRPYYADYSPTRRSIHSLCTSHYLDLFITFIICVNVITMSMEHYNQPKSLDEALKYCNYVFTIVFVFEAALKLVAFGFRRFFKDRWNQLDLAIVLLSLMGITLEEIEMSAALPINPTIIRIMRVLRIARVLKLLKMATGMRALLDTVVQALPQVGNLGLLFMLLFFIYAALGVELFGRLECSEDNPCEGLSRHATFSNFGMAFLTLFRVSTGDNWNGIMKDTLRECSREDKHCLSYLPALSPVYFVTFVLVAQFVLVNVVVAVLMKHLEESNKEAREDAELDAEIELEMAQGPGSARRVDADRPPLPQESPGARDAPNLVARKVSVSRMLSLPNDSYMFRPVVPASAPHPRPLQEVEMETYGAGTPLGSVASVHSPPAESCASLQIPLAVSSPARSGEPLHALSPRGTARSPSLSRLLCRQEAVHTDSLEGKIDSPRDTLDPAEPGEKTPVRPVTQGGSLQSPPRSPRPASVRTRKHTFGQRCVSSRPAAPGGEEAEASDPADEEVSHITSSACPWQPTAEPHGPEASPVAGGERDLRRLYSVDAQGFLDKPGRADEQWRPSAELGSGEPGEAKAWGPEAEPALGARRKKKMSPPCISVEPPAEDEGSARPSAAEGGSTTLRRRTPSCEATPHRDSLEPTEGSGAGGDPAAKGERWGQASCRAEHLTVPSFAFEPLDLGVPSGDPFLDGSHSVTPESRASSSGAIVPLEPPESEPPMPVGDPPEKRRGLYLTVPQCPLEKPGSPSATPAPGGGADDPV

Compound	reduction of the number of cough events [1, 14] [%]	latency to the first cough [1, 15]	inhibition of chloroquine-induced itching scratching behavior [2]	IC50 [4] [µM]	hCav3.2 Channel % Use Dep. (use dependent inhibition) [4] [%]	hERG % at 1 μM [5] [% at]	IC50 [6] [µM]	Na/T [6]	inhibition of histamine-induced itching scratching behavior [7]	IC50 [8] [µM]	K/T [8]	IC50 [3] [µM]	IC50 [9] [µM]	IC50 [10] [µM]	IC50 [11] [µM]	IC50 [5] [µM]	other results
CC(C)(C)NC(=O)CN1CCC2(CC1)CC2NC(=O)c1ccc(Cl)cc1F (stereo not shown) [EX-17]	36.8	reached significance; also recorded: significant increases															reduction of the number of cough events ([1]; 3 mg/kg p.o., 30 min before citric acid): 7.2%; reduction of the number of cough events ([1]; 10 mg/kg p.o., 30 min before citric acid): 23.3%; latency to the first cough ([1]; p.o., EX compounds 3-30 mg/kg, dextromethorphan 60 mg/kg): increases in the latencies of the first cough in a dose-dependent manner
CC(C)(C)CCN1CCC2(CC1)CC2NC(=O)Cc1cc(C(F)(F)F)cc(C(F)(F)F)c1 (stereo not shown) [AFA-221]			potent and equal efficacy	0.084	28.3	31	3.6	43	potent and equal efficacy	~30	357						inhibition of chloroquine-induced itching scratching behavior ([2]; listed as EX-31): effective; hCav2.2 % at 3 μM ([3]; at 3 μM): 47% at; inhibition of histamine-induced itching scratching behavior ([7]; listed as EX-31): effective
COc1ccc2c(c1)[C@]13CCCC[C@@H]1[C@H](C2)N(C)CC3 [dextromethorphan, reference compound]																	reduction of the number of cough events ([1]; 60 mg/kg p.o., 60 min before citric acid): 40.0% and 42.6%; latency to the first cough ([1]; 60 mg/kg p.o., vs vehicle-treated control): significant increases; also recorded: trend of increasing the latency, but not reaching significant difference; latency to the first cough ([1]; 60 mg/kg p.o., vs vehicle-treated control, listed as dextromethorphan hydrobromide): reached significance
CC(C)(C)NC(=O)CN1CCC(CNC(=O)c2cc(F)cc(Cl)c2)CC1 [AFA-258, reference compound]			did not produce anti-itching effects	0.195	17.6		> 100	>513		> 100	>513	> 30	21.4	0.2	> 100		IC50 [12]: > 30 µM
CC(C)(C)NC(=O)CN1CCC2(CC1)CC2NC(=O)c1cc(F)cc(Cl)c1 (stereo not shown) [AFA-279]	39.1	trend of increasing the latency, but not reaching significant difference	did not produce anti-itching effects	0.113	21.3		> 100	>1115	did not produce anti-itching effects	> 100	>1115	> 10	83.5	0.19	76.4	6.7	
C[C@H]1CN(S(=O)(=O)c2ccc(C(F)(F)F)cc2)CCN1C(=O)c1ccc2cccnc2c1 [AFA-353]				10.4		23	> 100	>10		> 100	>10	8.87					
CC(C)(C)NC(=O)CN1CCC2(CC1)CC2C(=O)Nc1cc(C(F)(F)F)cc(C(F)(F)F)c1 (stereo not shown) [AFA-322]	15.7	trend of increasing the latency, but not reaching significant difference		0.138	25.6		14.3	103	preferentially inhibited histamine-induced itching	> 100	>723	3.09	51.6	0.15	23.5	9.2	
CC(C)(C)NC(=O)CN1CCC2(CC1)C[C@H]2NC(=O)C12CC3CC(CC(C3)C1)C2 [AFA-309]				0.141	4.2		> 30	>212	preferentially inhibited histamine-induced itching	> 30	>212	15.6			25.8	> 30	hiPSC INa % at 3 μM ([9]; at 3 μM): 0% at; IC50 [12]: > 30 µM
CC(C)(C)CCN1CCC2(CC1)CC2N(CC1CC1)C(=O)c1cc(Cl)cc(Cl)c1 (stereo not shown) [AFA-206]				0.067	8.2	50	20.3	303	preferentially inhibited histamine-induced itching	6.8	102						
CC(C)(C)NC(=O)CN1CCC2(CC1)CC2NC(=O)c1cc(F)cc(C(F)(F)F)c1 (stereo not shown) [AFA-281]	33	trend of increasing the latency, but not reaching significant difference	potent and equal efficacy	0.179	13.9		> 100	>557	potent and equal efficacy	> 100	>557	> 30	31.4	0.6	> 100	8	inhibition of chloroquine-induced itching scratching behavior ([2]; listed as EX-130): effective; inhibition of histamine-induced itching scratching behavior ([7]; listed as EX-130): effective
O=C(NC1CC12CCN(S(=O)(=O)c1ccc(C(F)(F)F)cc1)CC2)c1cc(C(F)(F)F)cc(C(F)(F)F)c1 (stereo not shown) [AFA-358]			effective; also recorded: potent and equal efficacy	1.01		59	> 30	>30	effective; also recorded: potent and equal efficacy	> 30	>30	0.74					
COCC(=O)O[C@]1(CCN(C)CCCc2nc3ccccc3[nH]2)CCc2cc(F)ccc2[C@@H]1C(C)C [mibefradil]																	more potent inhibition of the T-type than of the L-type Ca2+ current or the voltage-gated Na+ current [13]: 3-10 times
